PubChem BioAssay AID256 (DTP/NCI, 2004)
Values joined by “and” are separate entries in the source; they are usually repeats but may differ in a detail not shown here. Equal values may be shown once. Inconclusive results and toxic doses are left out. How the source made its calls: active means survival T/C of 150% or more; inactive means T/C below 125% in these data.

System: CD2F1 mice, L1210 leukemia ip, survival T/C
Experiment: NCI In Vivo Anticancer Drug Screen. Data for tumor model L1210 Leukemia (intraperitoneal) in CD2F1 (CDF1) mice
Details: higher = longer survival
Outline: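 Ratio T/C, where T is the treated-group value and C the vehicle-dosed control value, from mice implanted with a transplantable tumor.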

[1] = endpoint: mean survival time, dose: 50.0 mg/kg/injection, schedule: Q01DX009 (ip), vehicle: saline with Tween-80
[2] = endpoint: mean survival time, dose: 100.0 mg/kg/injection, schedule: Q01DX009 (ip), vehicle: saline with Tween-80
[3] = endpoint: mean survival time, dose: 200.0 mg/kg/injection, schedule: Q01DX009 (ip), vehicle: saline with Tween-80
[4] = endpoint: mean survival time, dose: 100.0 mg/kg/injection, schedule: Q04DX003 (ip), vehicle: saline with Tween-80
[5] = endpoint: mean survival time, dose: 200.0 mg/kg/injection, schedule: Q04DX003 (ip), vehicle: saline with Tween-80
[6] = endpoint: mean survival time, dose: 400.0 mg/kg/injection, schedule: Q04DX003 (ip), vehicle: saline with Tween-80
[7] = endpoint: mean survival time, dose: 50.0 mg/kg/injection, schedule: Q04DX002 (ip), vehicle: saline with Tween-80
[8] = endpoint: mean survival time, dose: 100.0 mg/kg/injection, schedule: Q04DX002 (ip), vehicle: saline with Tween-80
[9] = endpoint: mean survival time, dose: 400.0 mg/kg/injection, schedule: Q01DX009 (ip), vehicle: saline with Tween-80

Measured: T/C

O=c1[nH]cnc2[nH]ncc12
inactive: endpoint: mean survival time, dose: 8.4 mg/kg/injection, schedule: Q04DX003 (ip), vehicle: saline with Tween-80 99 % of control | endpoint: mean survival time, dose: 14.0 mg/kg/injection, schedule: Q04DX003 (ip), vehicle: saline with Tween-80 103 % of control | endpoint: mean survival time, dose: 23.4 mg/kg/injection, schedule: Q04DX003 (ip), vehicle: saline with Tween-80 96 % of control | endpoint: mean survival time, dose: 39.0 mg/kg/injection, schedule: Q04DX003 (ip), vehicle: saline with Tween-80 101 % of control and 111 % of control | [1] 104 % of control | endpoint: mean survival time, dose: 60.0 mg/kg/injection, schedule: Q01DX006 (ip), vehicle: saline with Tween-80 97 % of control | endpoint: mean survival time, dose: 65.0 mg/kg/injection, schedule: Q04DX003 (ip), vehicle: saline with Tween-80 99 % of control and 104 % of control | [2] 106 % of control | endpoint: mean survival time, dose: 108.0 mg/kg/injection, schedule: Q04DX003 (ip), vehicle: saline with Tween-80 108 % of control and 111 % of control | endpoint: mean survival time, dose: 120.0 mg/kg/injection, schedule: Q01DX006 (ip), vehicle: saline with Tween-80 107 % of control | endpoint: mean survival time, dose: 180.0 mg/kg/injection, schedule: Q04DX003 (ip), vehicle: saline with Tween-80 106 % of control and 109 % of control | [3] 107 % of control | endpoint: mean survival time, dose: 300.0 mg/kg/injection, schedule: Q04DX003 (ip), vehicle: saline with Tween-80 104 % of control | endpoint: mean survival time, dose: 500.0 mg/kg/injection, schedule: Q04DX003 (ip), vehicle: saline with Tween-80 104 % of control | endpoint: mean survival time, dose: 833.0 mg/kg/injection, schedule: Q04DX003 (ip), vehicle: saline with Tween-80 97 % of control | endpoint: median survival time, dose: 12.5 mg/kg/injection, schedule: Q01DX009 (ip), vehicle: suspension in saline 101 % of control | endpoint: median survival time, dose: 25.0 mg/kg/injection, schedule: Q01DX009 (ip), vehicle: suspension in saline 103 % of control | endpoint: median survival time, dose: 50.0 mg/kg/injection, schedule: Q01DX009 (ip), vehicle: suspension in saline 100 % of control | endpoint: median survival time, dose: 100.0 mg/kg/injection, schedule: Q01DX009 (ip), vehicle: suspension in saline 101 % of control | endpoint: median survival time, dose: 200.0 mg/kg/injection, schedule: Q01DX009 (ip), vehicle: suspension in saline 107 % of control

Nc1nc(N)c2[nH]cnc2n1
inactive: endpoint: mean survival time, dose: 12.5 mg/kg/injection, schedule: Q01DX005 (ip), vehicle: Klucel (hydroxypropylcellulose) (HPC) 101 % of control | endpoint: mean survival time, dose: 25.0 mg/kg/injection, schedule: Q01DX005 (ip), vehicle: Klucel (hydroxypropylcellulose) (HPC) 101 % of control | endpoint: mean survival time, dose: 50.0 mg/kg/injection, schedule: Q01DX005 (ip), vehicle: Klucel (hydroxypropylcellulose) (HPC) 106 % of control | endpoint: mean survival time, dose: 50.0 mg/kg/injection, schedule: Q04DX003 (ip), vehicle: saline with Tween-80 95 % of control | endpoint: mean survival time, dose: 100.0 mg/kg/injection, schedule: Q01DX005 (ip), vehicle: Klucel (hydroxypropylcellulose) (HPC) 110 % of control | [4] 95 % of control | [5] 97 % of control | [6] 97 % of control

CN(Cc1ccc([N+](=O)[O-])cc1)N=Nc1ccc(C(=O)O)cc1
inactive: endpoint: mean survival time, dose: 25.0 mg/kg/injection, schedule: Q01DX009 (ip), vehicle: other 94 % of control | endpoint: mean survival time, dose: 50.0 mg/kg/injection, schedule: Q01DX009 (ip), vehicle: other 97 % of control | endpoint: mean survival time, dose: 100.0 mg/kg/injection, schedule: Q01DX009 (ip), vehicle: other 86 % of control | endpoint: mean survival time, dose: 200.0 mg/kg/injection, schedule: Q01DX009 (ip), vehicle: other 94 % of control

CCOC(=O)/C(=C/C(C#N)=C/N(C)C)CC
inactive: endpoint: mean survival time, dose: 100.0 mg/kg/injection, schedule: Q04DX003 (ip), vehicle: saline sonified 93 % of control | endpoint: mean survival time, dose: 200.0 mg/kg/injection, schedule: Q04DX003 (ip), vehicle: saline sonified 108 % of control

O=C1OCCC1C(=O)C(O)(C(F)(F)F)C(F)(F)F (centres undefined)
inactive: endpoint: mean survival time, dose: 100.0 mg/kg/injection, schedule: Q04DX003 (ip), vehicle: other 113 % of control | endpoint: mean survival time, dose: 200.0 mg/kg/injection, schedule: Q04DX003 (ip), vehicle: other 87 % of control | endpoint: mean survival time, dose: 400.0 mg/kg/injection, schedule: Q04DX003 (ip), vehicle: other 107 % of control

c1ccc2c(c1)oc1ccccc12
inactive: [4] 98 % of control | [5] 92 % of control | [6] 92 % of control

COC(=O)C12C=CC=CC3C(C=C1)NC(=O)C32 (centres undefined)
inactive: endpoint: median survival time, dose: 25.0 mg/kg/injection, schedule: Q04DX002 (ip), vehicle: saline with Tween-80 122 % of control | endpoint: median survival time, dose: 50.0 mg/kg/injection, schedule: Q04DX002 (ip), vehicle: saline with Tween-80 100 % of control | endpoint: median survival time, dose: 100.0 mg/kg/injection, schedule: Q04DX002 (ip), vehicle: saline with Tween-80 100 % of control | endpoint: median survival time, dose: 200.0 mg/kg/injection, schedule: Q04DX002 (ip), vehicle: saline with Tween-80 111 % of control

CC(=NC(c1ccccc1)c1ccccc1)N(C)C
inactive: endpoint: mean survival time, dose: 25.0 mg/kg/injection, schedule: Q04DX002 (ip), vehicle: saline with Tween-80 102 % of control | [7] 98 % of control | [8] 102 % of control

CC(C)(CCC#N)C(O)c1ccccc1 (centres undefined)
inactive: endpoint: mean survival time, dose: 100.0 mg/kg/injection, schedule: Q04DX002 (ip), vehicle: other 98 % of control | endpoint: mean survival time, dose: 200.0 mg/kg/injection, schedule: Q04DX002 (ip), vehicle: other 102 % of control | endpoint: mean survival time, dose: 400.0 mg/kg/injection, schedule: Q04DX002 (ip), vehicle: other 105 % of control

Nc1nc(=O)n(CCCOc2cccc([N+](=O)[O-])c2)cc1-c1ccccc1
inactive: endpoint: mean survival time, dose: 100.0 mg/kg/injection, schedule: Q01DX001 (ip), vehicle: saline with Tween-80 96 % of control | endpoint: mean survival time, dose: 200.0 mg/kg/injection, schedule: Q01DX001 (ip), vehicle: saline with Tween-80 87 % of control | endpoint: mean survival time, dose: 400.0 mg/kg/injection, schedule: Q01DX001 (ip), vehicle: saline with Tween-80 87 % of control

COc1cccc(CN2CCN(N)CC2)c1
inactive: endpoint: mean survival time, dose: 12.5 mg/kg/injection, schedule: Q01DX009 (ip), vehicle: Klucel (hydroxypropylcellulose) (HPC) 98 % of control | endpoint: mean survival time, dose: 25.0 mg/kg/injection, schedule: Q01DX009 (ip), vehicle: Klucel (hydroxypropylcellulose) (HPC) 97 % of control | endpoint: mean survival time, dose: 50.0 mg/kg/injection, schedule: Q01DX009 (ip), vehicle: Klucel (hydroxypropylcellulose) (HPC) 97 % of control | endpoint: mean survival time, dose: 100.0 mg/kg/injection, schedule: Q01DX009 (ip), vehicle: Klucel (hydroxypropylcellulose) (HPC) 92 % of control | endpoint: mean survival time, dose: 200.0 mg/kg/injection, schedule: Q01DX009 (ip), vehicle: Klucel (hydroxypropylcellulose) (HPC) 97 % of control

O=C(OC1(c2ccccc2)C2C=CC1CC2)c1ccc([N+](=O)[O-])cc1 (centres undefined)
inactive: [7] 102 % of control | [8] 98 % of control | endpoint: mean survival time, dose: 200.0 mg/kg/injection, schedule: Q04DX002 (ip), vehicle: saline with Tween-80 95 % of control

COC(=N)CC(=O)C(C)(C)C
inactive: endpoint: mean survival time, dose: 100.0 mg/kg/injection, schedule: Q01DX001 (ip), vehicle: other 102 % of control | endpoint: mean survival time, dose: 200.0 mg/kg/injection, schedule: Q01DX001 (ip), vehicle: other 97 % of control | endpoint: mean survival time, dose: 400.0 mg/kg/injection, schedule: Q01DX001 (ip), vehicle: other 97 % of control

O=c1ccn(C2CC(O)C(CO)O2)cc1 (centres undefined)
inactive: endpoint: mean survival time, dose: 100.0 mg/kg/injection, schedule: Q01DX005 (ip), vehicle: saline 101 % of control | endpoint: mean survival time, dose: 200.0 mg/kg/injection, schedule: Q01DX005 (ip), vehicle: saline 100 % of control

CC(=O)OCC1OC(n2ncc3c(Nc4ccccc4)ncnc32)C(OC(C)=O)C1OC(C)=O (centres undefined)
inactive: endpoint: mean survival time, dose: 25.0 mg/kg/injection, schedule: Q01DX009 (ip), vehicle: saline with Tween-80 93 % of control | [1] 100 % of control | [2] 87 % of control | [3] 100 % of control | [9] 100 % of control

C/C(=N\Nc1ccc([N+](=O)[O-])cc1[N+](=O)[O-])c1ccc[nH]1
inactive: [2] 87 % of control | [4] 95 % of control | [3] 97 % of control | [5] 95 % of control | [9] 93 % of control | [6] 91 % of control

O=C1OC(c2ccccc2)=N/C1=C\c1cccc(O)c1
inactive: [2] 104 % of control | [3] 109 % of control | [9] 98 % of control

O=C(Nc1ccc(F)cc1)c1cccc(Cl)c1
inactive: [2] 98 % of control | [4] 94 % of control | [3] 90 % of control | [5] 94 % of control | [9] 96 % of control | [6] 95 % of control

c1ccc(C2OCC3(CO2)COC(c2ccccc2)OC3)cc1 (centres undefined)
inactive: [2] 88 % of control | [4] 94 % of control | [3] 91 % of control | [5] 92 % of control | [6] 92 % of control

CCCN(CCC)S(=O)(=O)c1ccc(NC(=O)OC2CCCCC2)cc1
inactive: endpoint: mean survival time, dose: 100.0 mg/kg/injection, schedule: Q01DX001 (ip), vehicle: saline 93 % of control | endpoint: mean survival time, dose: 200.0 mg/kg/injection, schedule: Q01DX001 (ip), vehicle: saline 98 % of control | endpoint: mean survival time, dose: 400.0 mg/kg/injection, schedule: Q01DX001 (ip), vehicle: saline 97 % of control
